# Laboratory results: PMC6957347 (Pharmacology Research & Perspectives, 2020)
# pIC50: −log10 of the molar value.
# Columns and labels:
# rheumatoid arthritis = details: 0.5-5 mg, twice a day, PO ref 27; cited from earlier work
# PI3Kβ/α = assay: pAKT in PC3 cell line; type: cell-based
# [1] = tested on: human B and T cell cocultures; details: BioMAP T:B cocultures ref 10; cited from earlier work
pIC50 (PI3Kβ/α),SMILES,efficacy in rheumatoid arthritis clinical trials (rheumatoid arthritis),IgG production [1]
[…],C[C@H](Nc1ncnc2nc[nH]c12)c1cc2cccc(Cl)c2c(=O)n1-c1ccccc1 [duvelisib],efficacy could not be demonstrated,–
–,[O-][n+]1cccc(-c2nc3c(Cl)cccc3cc2[C@@H](Nc2ncnc3cccnc23)C(F)(F)F)c1 [seletalisib],–,attenuation of IgG production
